Measured values as given in patent publication US9061984B2 (University of Louisville Research Foundation, Inc., priority 2008, dated 2015).
Values after ≈ are worked out from the molar mass of the structure shown. Where two headings read alike, the source gives them in different places.

Tests used:
[1] = test system: axenic amastigotes of L. amazonensis (strain MHOM/BR/76/LTB-012)
[2] = test system: L. braziliensis PER006; assay: Activity against macrophages infected with Leishmania amastigotes; conditions: read-out: IC50 L. braziliensis PER006
Experimental: (§3) A cloned line of Leishmania amazonensis(strain MHOM/BR/76/LTB-012) was used in all experiments. Axenically grown amastigote forms of L. amazonensis were maintained by weekly subpassages in MAA/20 medium (Sereno and Lemesre, Antimicrobial Agents and Chemotherapy 41, 972-976 (1997)) at 32±1° C. in 25 cm^2 tissue culture flasks. L. peruviana (strain MHOM/PE/LCA08) and L. braziliensis (strainMHOM/PE/PER006) were maintained in the promastigote stage in a biphasic medium (blood agar with 0.89% NaCl, pH 7.4) at 24° C., with sub-passage every 3 to 4 days. Promastigotes (5×10^6 parasites) were then transferred to 25 cm2 tissue culture flasks containing 5 ml of M199 medium supplemented with 10% foetal bovine serum (FBS), pH 7.4. After 4 days, exponential phase promastigotes were centrifuged for 10 minutes at 1500 g and 4° C. The supernatant was discarded and replaced by fresh M199 medium supplemented with 20% FBS, pH 5.5. Axenic amastigotes transformation was then induced by increasing the temperature to 34° C. and incubating for 96 h (Teixeira et al., Parasitology Research 88, 963-968 (2002)).
(§4) Extracted cells were immediately deposited on sterile 4×4 mm cover glasses and placed in each well of a 96-well plate. Plates were incubated for 24 h at 37° C., 5% CO2 to allow cell adhesion (Castillo et al, Journal of Ethnopharmacology 112, 410-414 (2007)). Pre-warmed complete M199 medium was used twice to remove non-adherent cells. A neutral red method (Fautz et al., Mutation Research 253, 173-179 (1991)) was employed to determine cell concentration. Approximately 7×10^4 viable cells were deposited in each well for adhesion.
(§5) Infection of macrophages by amastigotes was determined as follows. […] Twelve hours after infection, a solution of the compounds to be tested was added to the cultures at various concentrations and maintained at 37° C. in 5% CO2 for a further forty-eight hours more. The plates were fixed with methanol and stained with 10% Giemsa stain. The percentage of infected macrophages was determined microscopically at 100 times magnification. The number of intracellular amastigotes was determined in 300 cells. Following Delorenzi et al. Antimicrobial Agents and Chemotherapy, 45, 1349-1354 (2001)) the percentage of infection rate (% IR) of each culture was calculated as follows: % IR=100−(infection rate of the treated culture/infection rate of the untreated culture)×100.
(§6) All experiments were performed in triplicate. ANOVA was used to test for statistical significance of differences (Epi-Info, Statview student program). The total parasite burden was calculated as a mean number of amastigotes per cells multiplied by the number of infected macrophages.

[3] = test system: L. peruviana LCA08; assay: as above; conditions: read-out: IC50 L. peruviana LCA08
Experimental: as §3, §4, §5, §6

[4] = test system: peritoneal macrophages; assay: Toxicity to peritoneal macrophages (Trypan Blue count); type: cell-based, BALB/C mouse
[5] = test system: L. amazonensis Lma CL1; assay: Activity against macrophages infected with Leishmania amastigotes
Experimental: as §3, §4, §5, §6

[6] = test system: axenic amastigotes of L. amazonensis (strain MHOM/BR/76/LTB-012); assay: microbe, parasite or virus in culture; conditions: Leishmania amazonensis
[7] = Cytotoxicity on VERO cells (MTT), anti-T. cruzi study; conditions: African green monkey, VERO cells
[8] = test system: VERO cells; assay: as above; conditions: Chlorocebus sabaeus, Vero, read-out: IC50 VERO, Table 3
[9] = test system: Trypanosoma cruzi (Tulahuen C4); assay: In vitro anti-T. cruzi activity (β-galactosidase CPRG colorimetric assay in VERO monolayer); type: cell-based
[10] = test system: L. amazonensis; conditions: for Reduction of parasite burden (column After 7 weeks, analyzed after 6 weeks treatment): 5 mg/kg/day intralesional, after 6 weeks treatment (footnote d); for Lesion diameter / Reduction of parasite burden After 4 weeks / Reduction of parasite burden After 7 weeks / Mean lesion size (mm) / Mean parasite quantification (per 10^6) in lesion per mg (±SD) / Mean lesion wt (mg) (±SD) / % Variation of lesion wt / % reduction of parasite burden in the lesion: compounds 5 mg/kg/day, intralesional; for Lesion diameter / Reduction of parasite burden After 4 weeks / Reduction of parasite burden After 7 weeks: Glucantime 33 mg/kg/day; for cutaneous toxicity: at the tested doses (5 mg/kg/day intralesional); for Mean lesion size (mm) / Mean parasite quantification (per 10^6) in lesion per mg (±SD) / Mean lesion wt (mg) (±SD) / % Variation of lesion wt / % reduction of parasite burden in the lesion: Glucantime 33 mg Sb(v)/kg/day; for Mean lesion wt (mg) (±SD): BALB/c mice n=10; for % Variation of lesion wt / % reduction of parasite burden in the lesion: vs control
[11] = test system: 3T3 cells; assay: Cell growth inhibition bioassay (sulforhodamine B); type: cell-based, mouse; conditions: Mus musculus, NIH3T3; 48 h, SRB; read-out: GI50 in indicated cell line: 3T3
How it was run: (§1)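 Cells were exposed to compound alongside matched solvent controls, then stained with sulforhodamine B. Percent growth inhibition was calculated from dye absorbance against the control.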

[12] = test system: M. tuberculosis H37Rv; assay: Conventional aerobic (MABA) culture assay, luminescence MIC; type: cell-based, Mycobacterium tuberculosis
[13] = Cytotoxicity VERO cell (Table 6); conditions: African green monkey, VERO cells
[14] = test system: HT-29 cells; assay: Cell growth inhibition bioassay (sulforhodamine B); type: cell-based, human; conditions: Homo sapiens, HT-29; 48 h, SRB; read-out: GI50 in indicated cell line: HT-29
How it was run: as §1

[15] = test system: DU145 cells; assay: Cell growth inhibition bioassay (sulforhodamine B); type: cell-based, human; conditions: Homo sapiens, DU-145; 48 h, SRB; read-out: GI50 in indicated cell line: DU145
How it was run: (§2)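 Cytotoxicity is read by sulforhodamine B colorimetry following the Skehan protocol; values are growth inhibition relative to solvent-only wells.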

[16] = test system: M-14 cells; assay: Cell growth inhibition bioassay (sulforhodamine B); type: cell-based, human; conditions: Homo sapiens, M14; 48 h, SRB; read-out: GI50 in indicated cell line: M-14
How it was run: as §1

[17] = test system: H460 cells; assay: Cell growth inhibition bioassay (sulforhodamine B); type: cell-based, human; conditions: Homo sapiens, NCI-H460; 48 h, SRB; read-out: GI50 in indicated cell line: H460
How it was run: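 SRB colorimetric read-out; % growth inhibition vs solvent control. Human lines: MCF-7 (breast adenocarcinoma), DU145 (prostate carcinoma), PC3 (prostate adenocarcinoma), H460 (large cell lung cancer).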

[18] = test system: K562 cells; assay: Cell growth inhibition bioassay (sulforhodamine B); type: cell-based, human; conditions: Homo sapiens, K562; 48 h, SRB; read-out: GI50 in indicated cell line: K562
How it was run: as §1

[19] = test system: MCF-7 cells; assay: Cell growth inhibition bioassay (sulforhodamine B); type: cell-based, human; conditions: Homo sapiens, MCF7; 48 h, SRB; read-out: GI50 in indicated cell line: MCF-7
How it was run: as §2

[20] = Toxicity to peritoneal macrophages (Trypan Blue count); type: cell-based, BALB/C mouse; conditions: BALB/C, mouse, Cytotoxicity Macrophages IC50
[21] = test system: VERO cells; assay: Cell growth inhibition bioassay (sulforhodamine B); type: cell-based, African Green Monkey; conditions: Chlorocebus sabaeus, Vero; 48 h, SRB; read-out: GI50 in indicated cell line: VERO
How it was run: as §2

[22] = 72 h, read-out: IC50 L. amazonensis
[23] = Leishmania braziliensis, Macrophage, 48 h
[24] = Leishmania peruviana, Macrophage, 48 h
[25] = Mus musculus, Peritoneal macrophage, 48 h, Table 7, read-out: IC50 Macrophage
[26] = Leishmania amazonensis, Macrophage, 48 h, read-out: IC50 L. amazonensis Lma CL1

## C[C@@H]1[C@H](O)[C@@H](C)/C=C/C=C/C=C/C=C/C=C/C=C/C=C/[C@H](O[C@@H]2O[C@H](C)[C@@H](O)[C@H](N)[C@@H]2O)C[C@@H]2O[C@](O)(C[C@@H](O)C[C@@H](O)[C@H](O)CC[C@@H](O)C[C@@H](O)CC(=O)O[C@H]1C)C[C@H](O)[C@H]2C(=O)O [Amphotericin B, reference compound]
[1]
  IC50: 0.14 µM
[1]; read-out: IC50 L. amazonensis, axenic amastigotes, 72 h, Table 7
  IC50: 0.1 µM
[1]; read-out: L. amazonensis IC50, Table 8b
  IC50: 0.1 µM
[2]; infected macrophages, 48 h
  IC50: 0.1 µM
[3]; infected macrophages, 48 h
  IC50: 0.1 µM
[4]
  IC50: 5.4 µM
[4]; 48 h, Table 7, read-out: IC50 Macrophage
  IC50: 5.3 µM
[5]; read-out: IC50 L. amazonensis Lma CL1, infected macrophages, 48 h
  IC50: 0.4 µM

## C=CCOc1cc(OC)c(C(=O)/C=C/c2ccccn2)c(OCC=C)c1 [Compound I-27, (2E)-1-[2-Methoxy-4,6-bis(2-propenyloxy)phenyl]-3-(2-pyridinyl)-2-propen-1-one]
[6]; [22]
  IC50: 1.1 µM
[7]; IC50 - VERO Cytotoxicity, Table 2
  IC50: 1 µg/mL (≈ 2.85 µM)
[8]
  IC50: 2.8 µM
[2]; [23]
  IC50: 1.4 µM
[3]; [24]
  IC50: 4 µM
[9]; Trypanosoma cruzi, TULAHUEN, Vero, 120 h, 10 μg/mL of each compound, 120 hours, read-out: T. cruzi Inhib. (%)
  inhibition at 10 µg/mL: 77.2%
[9]; Trypanosoma cruzi, TULAHUEN, Vero, Table 2, read-out: IC50 - T. cruzi
  IC50: 0.67 µg/mL
[9]; Trypanosoma cruzi, TULAHUEN, Vero, Table 3, read-out: IC50 T. cruzi
  IC50: 1.9 µM
[4]; [25]
  IC50: 12.5 µM
[5]; [26]
  IC50: 0.9 µM
[5]; Leishmania amazonensis, Macrophage, read-out: bioactivities (IC50) in macrophage-infected model
  IC50: 0.9 to 4 µM
[10]
  Reduction of parasite burden (column After 7 weeks, analyzed after 6 weeks treatment): 25^d %
  Lesion diameter: 4.1 mm
  Reduction of parasite burden After 4 weeks: −4%

## COc1ccc(/C=C/C(=O)c2c(O)cc(O)cc2OC)c(OC)c1 [Compound I-36, (2E)-1-(2,4-Dihydroxy-6-methoxyphenyl)-3-(2,4-dimethoxyphenyl)-2-propen-1-one]
[6]; [22]
  IC50: 6.4 µM
[2]; [23]
  IC50: 237 µM
[3]; [24]
  IC50: 290 µM
[4]; [25]
  IC50: > 300 µM
[5]; [26]
  IC50: 28.5 µM

## C=CCOc1cc(/C=C/C(=O)c2c(O)cc(O)cc2OC)cc(OCC=C)c1Br [Compound I-42, (2E)-3-(3,5-Bis(2-propenyloxy)-4-bromophenyl)-1-(2,4-dihydroxy-6-methoxyphenyl)-2-propen-1-one]
[6]; [22]
  IC50: 1.1 µM
[2]; [23]
  IC50: 14.4 µM
[4]; [25]
  IC50: 11.5 µM
[5]; [26]
  IC50: 4.1 µM
[10]
  Reduction of parasite burden (column After 7 weeks, analyzed after 6 weeks treatment): 8^d %
  Lesion diameter: 4.6 mm
  Reduction of parasite burden After 4 weeks: 9%

## COc1cc(O)cc(O)c1C(=O)/C=C/c1ccco1 [Compound I-43, (2E)-1-(2,4-Dihydroxy-6-methoxyphenyl)-3-(2-furanyl)-2-propen-1-one]
[6]; [22]
  IC50: 4.6 µM
[2]; [23]
  IC50: 30.4 µM
[3]; [24]
  IC50: 34.2 µM
[4]; [25]
  IC50: 384 µM
[5]; [26]
  IC50: 17 µM

## COCOc1cc(OC)c(C(=O)/C=C/c2ccc(OC)cc2)c(OCOC)c1 [Compound I-44]
[6]; [22]
  IC50: 1.3 µM
[2]; [23]
  IC50: 5.15 µM
[3]; [24]
  IC50: 111 µM
[4]; [25]
  IC50: > 250 µM
[5]; [26]
  IC50: 12.1 µM
[10]
  Lesion diameter: 4.7 mm
  Reduction of parasite burden After 4 weeks: 11%
  Reduction of parasite burden After 7 weeks: 17%

## COCOc1cc(OC)c(C(=O)/C=C/c2ccc3c(c2)OCO3)c(OCOC)c1 [Compound I-45]
[6]; [22]
  IC50: 11.7 µM
[2]; [23]
  IC50: 17.2 µM
[3]; [24]
  IC50: 34.8 µM
[4]; [25]
  IC50: 143 µM
[5]; [26]
  IC50: 23.9 µM
[10]
  cutaneous toxicity: did not exhibit any cutaneous toxicity
  Lesion diameter: 4.6 mm
  Reduction of parasite burden After 4 weeks: 92%
  Reduction of parasite burden After 7 weeks: 35%

## COCOc1cc(O)c(C(=O)/C=C/c2cc(OC)c(OC)c(OC)c2)c(OC)c1 [Compound I-46]
[6]; [22]
  IC50: 6.2 µM
[2]; [23]
  IC50: 13.1 µM
[3]; [24]
  IC50: 19.3 µM
[4]; [25]
  IC50: 132 µM
[5]; [26]
  IC50: 28.7 µM
[10]
  cutaneous toxicity: did not exhibit any cutaneous toxicity
  Lesion diameter: 5.1 mm
  Reduction of parasite burden After 4 weeks: 74%
  Reduction of parasite burden After 7 weeks: 41%

## CCC(CC)=NNc1ncnc2sc3c(c12)CCCC3 [II-48]
[11]
  GI50: 1.4 µg/mL (≈ 4.85 µM)
[1]; Table 8b
  Selectivity Index: 8.5
[6]; read-out: L. amazonensis IC50
  IC50: 5.5 µM
[12]; Mycobacterium tuberculosis, 168 h, aerobic, 7 days, H37Rv
  MIC: 46.2 µg/mL (≈ 160 µM)
[12]; VERO vs MABA MIC
  Selectivity Index H37Rv: 0.7
[13]
  IC50: 32.9 µg/mL (≈ 114 µM)
[7]; Cytotoxicity VERO Lab B, Lab B
  IC50: 6 µg/mL (≈ 20.8 µM)
[2]; Leishmania braziliensis, Macrophage
  IC50: 3.2 µg/mL
[14]
  GI50: 11.2 µg/mL (≈ 38.8 µM)
[15]
  GI50: 4.3 µg/mL (≈ 14.9 µM)
[16]
  GI50: 5.9 µg/mL (≈ 20.5 µM)
[17]
  GI50: 4.4 µg/mL (≈ 15.3 µM)
[18]
  GI50: 3.3 µg/mL (≈ 11.4 µM)
[19]
  GI50: 4.4 µg/mL (≈ 15.3 µM)
[3]; Leishmania peruviana, Macrophage
  IC50: 2 µg/mL
[9]; IC50, VERO/IC50, T. cruzi, Lab B
  Selectivity Index Lab B: 1.0
[9]; Trypanosoma cruzi, TULAHUEN, Vero, Lab A, read-out: T. cruzi IC50 Lab A
  IC50: 4.8 µg/mL
[9]; Trypanosoma cruzi, TULAHUEN, Vero, Lab B, read-out: T. cruzi IC50 Lab B
  IC50: 6 µg/mL
[20]
  IC50 at 48 h: 46.7 µM
[21]
  GI50: 7.4 µg/mL (≈ 25.7 µM)
[10]; after 4 weeks treatment
  Mean lesion size (mm): 2.8 mm
  Mean parasite quantification (per 10^6) in lesion per mg (±SD): 0.60 (±0.44) amastigotes (×10^6)/mg
  Mean lesion wt (mg) (±SD): 38.2 (±11.4) mg
  % Variation of lesion wt: 37%
  % reduction of parasite burden in the lesion: 65%
[10]; after 7 weeks treatment
  Mean lesion size (mm): 4.9 mm
  Mean parasite quantification (per 10^6) in lesion per mg (±SD): 1.53 (±0.18) amastigotes (×10^6)/mg
  Mean lesion wt (mg) (±SD): 85.0 (±4.5) mg
  % Variation of lesion wt: 5%
  % reduction of parasite burden in the lesion: 17%
